Source: US8551914B2, “Pesticidal compositions” (Dow AgroSciences, LLC., priority 2011, dated 2013)
Counter-ions that a name gives are not always drawn.

Experiments:
Format in all cases: in vivo
BAW (Spodoptera exigua) = assay: Bioassay on beet armyworm (BAW), 128-well diet tray assay; conditions: 50 μg/cm2 on artificial diet, second instar larvae, five to seven days, 25° C.; for mortality at 50 µg/cm2: Spodoptera exigua, 168 h
Experimental: (§1) Certain molecules disclosed in this document were tested against BAW and CEW using procedures described in the following examples. In the reporting of the results, the “BAW & CEW Rating Table” was used (See Table Section).
Bioassays on BAW were conducted using a 128-well diet tray assay. one to five second instar BAW larvae were placed in each well (3 mL) of the diet tray that had been previously filled with 1 mL of artificial diet to which 50 μg/cm^2 of the test compound (dissolved in 50 μL of 90:10 acetone-water mixture) had been applied (to each of eight wells) and then allowed to dry. Trays were covered with a clear self-adhesive cover, and held at 25° C., 14:10 light-dark for five to seven days. Percent mortality was recorded for the larvae in each well; activity in the eight wells was then averaged. The results are indicated in the table entitled “Table 1” (See Table Section).

CEW (Helicoverpa zea) = assay: Bioassay on corn earworm (CEW), 128-well diet tray assay; conditions: 50 μg/cm2 on artificial diet, second instar larvae, five to seven days, 25° C.; for mortality at 50 µg/cm2: Helicoverpa zea, 168 h
Experimental: as §1
Bioassays on CEW were conducted using a 128-well diet tray assay. one to five second instar CEW larvae were placed in each well (3 mL) of the diet tray that had been previously filled with 1 mL of artificial diet to which 50 μg/cm^2 of the test compound (dissolved in 50 μL of 90:10 acetone-water mixture) had been applied (to each of eight wells) and then allowed to dry. Trays were covered with a clear self-adhesive cover, and held at 25° C., 14:10 light-dark for five to seven days. Percent mortality was recorded for the larvae in each well; activity in the eight wells was then averaged. The results are indicated in the table entitled “Table 1” (See Table Section).

GPA (Myzus persicae) = assay: Bioassay on green peach aphid (GPA), foliar spray on cabbage seedlings; conditions: 200 ppm spray on cabbage seedlings, three days, Abbott corrected % control; for mortality at 200 ppm: Myzus persicae, foliar, 72 h
Experimental: Certain molecules disclosed in this document were tested against GPA using procedures described in the following example. In the reporting of the results, the “GPA Rating Table” was used (See Table Section).
Cabbage seedlings grown in 3-inch pots, with 2-3 small (3-5 cm) true leaves, were used as test substrate. The seedlings were infested with 20-50 GPA (wingless adult and nymph stages) one day prior to chemical application. Four pots with individual seedlings were used for each treatment. Test compounds (2 mg) were dissolved in 2 mL of acetone/methanol (1:1) solvent, forming stock solutions of 1000 ppm test compound. The stock solutions were diluted 5× with 0.025% Tween 20 in H2O to obtain the solution at 200 ppm test compound. A hand-held aspirator-type sprayer was used for spraying a solution to both sides of […] leaves until runoff. Reference plants (solvent check) were sprayed with the diluent only containing 20% by volume of acetone/methanol (1:1) solvent. Treated plants were held in a holding room for three days at approximately 25° C. and ambient relative humidity (RH) prior to grading. Evaluation was conducted by counting the number of live aphids per plant under a microscope. Percent Control was measured by using Abbott's correction formula (W. S. Abbott, “A Method of Computing the Effectiveness of an Insecticide” J. Econ. Entomol. 18 (1925), pp. 265-26′7) as follows. Corrected % Control=100*(X−Y)/X • where • X=No. of live aphids on solvent check plants and • Y=No. of live aphids on treated plants

Row | SMILES | mortality at 50 µg/cm2 (BAW (Spodoptera exigua)) [%] | % Mortality CEW 50 μg/cm2 (CEW (Helicoverpa zea)) | mortality at 50 µg/cm2 (CEW (Helicoverpa zea)) [%] | mortality at 200 ppm (GPA (Myzus persicae)) [%] | % Mortality BAW 50 μg/cm2 (BAW (Spodoptera exigua)) | % Mortality GPA 200 ppm (GPA (Myzus persicae))
1 | CO[C@@H]1[C@@H](OC)[C@H](C)O[C@@H](ONCc2ccc(-c3ncn(-c4ccc(OC(F)(F)F)cc4)n3)cc2)[C@@H]1OC.Cl [Compound 4, N-{4-[1-(4-trifluoromethoxyphenyl)-1H-[1,2,4]triazol-3-yl]-benzyl}-O-((2S,3R,4R,5S,6S)-3,4,5-trimethoxy-6-methyl-tetrahydropyran-2-yl)-hydroxylamine hydrochloride] | 50 to 100 | B (More than 0-Less than 50) |  |  |  | 
2 | CCO[C@@H]1[C@@H](OC)[C@H](C)O[C@@H](ONCc2ccc(-c3ncn(-c4ccc(OC(F)(F)C(F)(F)F)cc4)n3)cc2)[C@@H]1OC [Compound 5, O-((2S,3R,4R,5S,6S)-4-Ethoxy-3,5-dimethoxy-6-methyl-tetrahydropyran-2-yl)-N-{4-[1-(4-pentafluoroethyloxy-phenyl)-1H-[1,2,4]triazol-3-yl]-benzyl}-hydroxylamine hydrochloride] | 50 to 100 |  | 50 to 100 | 0 |  | 
3 | COC(=O)CC(=O)N(Cc1ccc(-c2ncn(-c3ccc(OC(F)(F)F)cc3)n2)cc1)O[C@@H]1O[C@@H](C)[C@H](OC)[C@@H](OC)[C@H]1OC [Compound 9, N-{4-[1-(4-trifluoromethoxyphenyl)-1H-[1,2,4]triazol-3-yl]-benzyl}-N-((2S,3R,4R,5S,6S)-3,4,5-trimethoxy-6-methyl-tetrahydropyran-2-yloxy)-malonamic acid methyl ester] | 50 to 100 |  | 50 to 100 | 0 to 80 |  | 
4 | CO[C@@H]1[C@@H](OC)[C@H](C)O[C@@H](ON(C)Cc2ccc(-c3ncn(-c4ccc(OC(F)(F)F)cc4)n3)cc2)[C@@H]1OC [Compound 7, N-Methyl-N-{4-[1-(4-trifluoromethoxyphenyl)-1H-[1,2,4]triazol-3-yl]-benzyl}-O-((2S,3R,4R,5S6S)-3,4,5-trimethoxy-6-methyl-tetrahydro-pyran-2-yl)-hydroxylamine] | 50 to 100 |  | 50 to 100 | 0 |  | 
5 | CO[C@@H]1[C@@H](OC)[C@H](C)O[C@@H](ON(Cc2ccc(-c3ncn(-c4ccc(OC(F)(F)F)cc4)n3)cc2)C(C)=O)[C@@H]1OC [Compound 6, N-{4-[1-(4-trifluoromethoxyphenyl)-1H-[1,2,4]triazol-3-yl]-benzyl}-N-((2S,3R,4R,5S,6S)-3,4,5-trimethoxy-6-methyl-tetrahydropyran-2-yloxy)-acetamide] | 50 to 100 |  | 50 to 100 | 0 to 80 |  | 
6 | CO[C@@H]1[C@@H](OC)[C@H](C)O[C@@H](ON(Cc2ccc(-c3ncn(-c4ccc(OC(F)(F)F)cc4)n3)cc2)C(=O)CCC(=O)O)[C@@H]1OC [Compound 8, N-{4-[1-(4-trifluoromethoxyphenyl)-1H-[1,2,4]triazol-3-yl]-benzyl}-N-((2S,3R,4R,5S,6S)-3,4,5-trimethoxy-6-methyl-tetrahydropyran-2-yloxy)-succinamic acid] | 0 |  | 0 | 0 |  | 
7 | CO[C@@H]1[C@@H](O)[C@H](C)O[C@@H](ONCc2ccc(-c3ncn(-c4ccc(OC(F)(F)C(F)(F)F)cc4)n3)cc2)[C@@H]1OC [Compound 2, (2S,3S,4R,5R,6S)-4,5-Dimethoxy-2-methyl-6-(N-{4-[1-(4-pentafluoroethyloxy-phenyl)-1H-[1,2,4]triazo1-3-yl]-benzyl}aminooxy)-tetrahydroyran-3-ol] | 50 to 100 |  | 50 to 100 | 0 to 80 |  | 
8 | CCO[C@@H]1[C@@H](OC)[C@H](C)O[C@@H](ONCc2ccc(-c3ncn(-c4ccc(OC(F)(F)C(F)(F)F)cc4)n3)cc2)[C@@H]1OC [Compound 1, O-((2S,3R,4R,5S,6S)-4-ethoxy-3,5-dimethoxy-6-methyl-tetrahydropyran-2-yl)-N-{4-[1-(4-pentafluoroethyloxy-phenyl)-1H-[1,2,4]triazol-3-yl]-benzyl}-hydroxylamine] |  | A (50-100) |  |  | A (50-100) | B (More than 0-Less than 80)
9 | CO[C@@H]1[C@@H](OC)[C@H](C)O[C@@H](ONCc2ccc(-c3ncn(-c4ccc(OC(F)(F)F)cc4)n3)cc2)[C@@H]1OC [Compound 3, N-{4-[1-(4-trifluoromethoxyphenyl)-1H-[1,2,4]triazol-3-yl]-benzyl}-O-((2S,3R,4R,5S,6S)-3,4,5-trimethoxy-6-methyl-tetrahydro-pyran-2-yl)-hydroxylamine] |  | A (50-100) |  | 0 to 80 | A (50-100) | 
